Usually IC50 stands for the point on the concentration scale where inhibition reaches its midpoint.

The subject of assay [1] is Escherichia coli. Nature of the assay: Agar disc diffusion, strain A. In kind it is cell-based. The arrangement: (inhibition %): concentration or dose not given beside the values. To be noted: for (inhibition %): (T–C)/T×100; for diameter of the clear zone inhibition: control (DMSO) = 6 mm. As to the method: (§1) In-vitro antimicrobial properties were evaluated for all samples by the agar disc diffusion method towards different fungal and bacterial strains. Additionally, the reported inhibition zone values were comparatively analyzed with the standard antifungal drugs ketoconazole and amphotericin B as well as the standard antibiotic medications streptomycin and amikacin.
(§2) The current research has a curious focus on the in vitro antimicrobial properties of biological systems because these studies are crucial for developing effective antibacterial and antifungal medications. […] It can also be spelled out based on the chelation theory proposed by Overtone and Tweedy. Chelation theory points out that the partial exchanging of the positive charge of the metal center with donor moieties, and overlap of the ligand orbitals will reduce the greater degree of the metal ion's polarity, which ultimately rises the delocalization of π and d electrons over the full chelated ring system. By raising the size of the metal ion due to the retarding of polarization, chelation may also enhance the complexes' lipophilic characteristics, which further stimulate the lipid membrane permeability and break down the bacteria' enzymes responsible for cell wall formation, therefore slowing down the regular cell processes. By preventing the production of cell walls/proteins/DNA, including by obstructing folate metabolism and the cytoplasmic membrane, antimicrobial drugs frequently either fully eliminate microbes or only prevent their cell growth. Additionally, the samples' mode of action may be employed in disrupting the cell's respiration process by forming an H-bond during the morpholine-fused iminic group coordinated with the active metal center of its components, inhibiting proliferation of the cell. […] The difference in the antimicrobial efficacy of some of the compounds towards various microorganisms influences on the impermeability of the cells of the germs or the diversity of ribosomes of the microbes. The % of the inhibition of all substances is estimated from (45) (Table 9).
(§3) (A, B, C, D, and E are represented as gram negative bacteria species Escherichia coli, Salmonella enteric serovar typhi, Salmonella enteric serovar typhi, Pseudomonas aeruginosa, and Shigella flexneri, respectively. F & G are denoted as gram positive bacteria species Staphylococcus aureus and Bacillus cereus. H, I, and J are represented as fungal strains Aspergillus niger, Candida albicans, and Mucor indicus. Standard drugs for bacterial strains: Amikacin & Streptomycin Standard drugs for fungal strains: Ketoconazole and Amphotericin B. [Control (DMSO) = 6 mm].(44) Inhibition %=T–C/T×100, where T and C are represented as the diameter of microbial growth of the sample plates and the control plate (6 mm), respectively. Error limits ±2.5–5.0% (P ≤ 0.05).
In general terms: A growth-free zone around the sample is the usual read-out of agar diffusion tests.

Assay [2] concerns Salmonella enteric serovar typhi. Nature of the assay: Agar disc diffusion, strain B. In kind it is cell-based. As to conditions: for diameter of the clear zone inhibition: control = 6 mm. As to the method:
as §1, §2, §3

Assay [3] concerns Pseudomonas aeruginosa. The experiment in a line: Agar disc diffusion, strain D. In kind it is cell-based. Also noted: (inhibition %): concentration or dose not given beside the values. To be noted: for diameter of the clear zone inhibition: control = 6 mm. As to the method: as §1, §2, §3
Assay [4] concerns Staphylococcus aureus. The experiment in a line: Agar disc diffusion, strain F. As to conditions: for diameter of the clear zone inhibition: control = 6 mm. Also noted: (inhibition %): concentration or dose not given beside the values. In kind it is cell-based. As to the method: as §1, §2, §3
Assay [5] relates to Shigella flexneri. Nature of the assay: Agar disc diffusion, strain E. As to conditions: for diameter of the clear zone inhibition: control = 6 mm. In kind it is cell-based. The arrangement: (inhibition %): concentration or dose not given beside the values. As to the method: as §1, §2, §3
Assay [6] concerns Bacillus cereus. Nature of the assay: Agar disc diffusion, strain G. In kind it is cell-based. Also noted: (inhibition %): concentration or dose not given beside the values. As to conditions: for diameter of the clear zone inhibition: control = 6 mm. As to the method:
as §1, §2, §3

The subject of assay [7] is Salmonella enteric serovar typhi. The experiment in a line: Agar disc diffusion, strain C. In kind it is cell-based. To be noted: for diameter of the clear zone inhibition: control = 6 mm. As to the method:
as §1, §2, §3

Assay [8] deals with A549 human lung cancer cell line. The experiment in a line: MTT cell viability assay, A549. In kind it is cell-based. To be noted: 72 hours exposure. As to the method:
(§4) All substances towards the A549, HepG2, MCF-7, and NHDF cell lines were evaluated by using the MTT approach. The collected data were utilized to compute the IC50 value and contrast it with the gold standard cisplatin anticancer medication.
(§5) Cellular viability or metabolic properties can be measured using the MTT assay, which is a powerful and credible method for anticancer properties. The anticancer efficacy of all test compounds was investigated by the MTT assay against A549, HepG2, MCF-7, and NHDF cell lines. As per the colorimetric approach, the IC50 findings of all test substances were evaluated as the % of cell viability/growth inhibition. […] Nevertheless, complex (1a) has the highest cytotoxic potential among others. The acquired findings were in the subsequent sequence as follows: (cisplatin) > (1a) > (2a) > (HL) (Figure 16 and Table 10). The cytotoxic effectiveness is dependent upon the DNA-binding modalities, the structure-activity relationship, as well as drug concentrations and incubation period exposure. […] As per Tweedy's chelation theory, charge equilibration happens as a result of coordination between the ligands and metal ions, which minimises the polarity of the metal ions and causes the capability of the test complexes to pass via the cell membrane lipid layer. Thus, it put off the synthesis of cell wall/protein/nucleic acids. Additionally, the results of DNA-binding tests using these complexes, including gel electrophoresis, UV-visible spectral titration, hydrodynamic, emission, and CV findings, were in good agreement with the findings of cytotoxicity. The expressions (46) and (47) were supported to measure the % of growth inhibition and cell viability. […]
(§6) A549, HepG2 MCF-7, and NHDF are represented as human lung cancer cell line, liver cancer cell line, breast cancer cell line, and normal human dermal fibroblasts cell line.(45) % Cytotoxiciy=1− Mean absorbance of Sample at 595 nm/Mean absorbance of Controlat 595 nm ×100, (46) Cellviability%=100−Cytotoxiciy%.
Background: Formazan colour is commonly taken as a measure of viable cells.

The subject of assay [9] is HepG2 liver cancer cell line. The experiment in a line: MTT cell viability assay, HepG2. In kind it is cell-based, human. To be noted: 72 hours exposure. As to the method: as §4, §5, §6
In assay [10] the test system is NHDF normal human dermal fibroblasts cell line. Nature of the assay: MTT cell viability assay, NHDF. In kind it is cell-based. To be noted: 72 hours exposure, normal cells. As to the method:
as §4, §5, §6

Assay [11] concerns MCF-7 breast cancer cell line. Nature of the assay: MTT cell viability assay, MCF-7. In kind it is cell-based, human. To be noted: 72 hours exposure. As to the method:
as §4, §5, §6

Regarding `NCC[C@H](O)C(=O)N[C@@H]1C[C@H](N)[C@@H](O[C@H]2O[C@H](CN)[C@@H](O)[C@H](O)[C@H]2O)[C@H](O)[C@H]1O[C@H]1O[C@H](CO)[C@@H](O)[C@H](N)[C@H]1O` [Amikacin, reference compound], the “(inhibition %)” value was found to be 73% in assay [1]; 73% in assay [2]; 70% in [3]; 70% in [4]; 70% in [5]; 70% in [6]. The “(inhibition %)” value in assay [7] was determined as 75%. The “diameter of the clear zone inhibition” value in assay [1] was found to be 22 mm; in assay [2], 22 mm; in [3], 20 mm; in assay [4], 20 mm; in assay [5], 20 mm; in assay [6], 20 mm. For the same molecule, in [7], the “diameter of the clear zone inhibition” value is recorded as 24 mm.

Regarding `N.N.[Cl][Pt][Cl]` [Cisplatin, reference compound], the IC50 worked out at 31.9 ± 1.6 µM in assay [8], 22.9 ± 1.1 µM in [9], 26.9 ± 1.3 µM in [10] and 20.2 ± 1 µM in assay [11].

On to `[H]/N=C(/N)N[C@H]1[C@H](O)[C@@H](O)[C@H](O[C@@H]2O[C@@H](C)[C@](O)(C=O)[C@H]2O[C@@H]2O[C@@H](CO)[C@H](O)[C@@H](O)[C@@H]2NC)[C@@H](N/C(N)=N\[H])[C@@H]1O` [Streptomycin, reference compound], for which the “(inhibition %)” value in [1] was determined as 75%; in [2], 77%; in assay [3] it was 71%; in assay [4] it was 71%; in [5], 76%; in assay [6], 71%. Moreover, the “(inhibition %)” value in assay [7] is reported as 75%. Also, the “diameter of the clear zone inhibition” value in assay [1] amounted to 24 mm; in assay [2], 26 mm; in assay [3], 21 mm; in assay [4], 21 mm; in [5], 25 mm; in assay [6] it was 21 mm. Moreover, in assay [7], the “diameter of the clear zone inhibition” value turned out to be 24 mm.

Values taken from article PMC9763021, “Comprehensive Assessment of Biomolecular Interactions of Morpholine-Based Mixed Ligand Cu(II) and Zn(II) Complexes of 2,2′-Bipyridine as Potential Anticancer and SARS-CoV-2 Agents: A Synergistic Experimental and Structure-Based Virtual Screening” (Bioinorganic Chemistry and Applications, 2022).
